Experimental data taken from US8394786B2, “Quinazoline derivatives” (Janssen Pharmaceutica N.V., priority 2003, dated 2013).

Key:
[1] = test system: A431 cells; assay: Proliferation assay on the squamous carcinoma cell line A431 cells (C5); format: cell-based; settings: Homo sapiens, A-431; 72 hours with compounds; MTT cell viability assay; read-out: A431 cell (C5): pIC50 (converted)
Description: The squamous carcinoma cell line (A431) was used in a cell proliferation assay, to assess the inhibitory effect of the compounds in whole cells.
In a first step the A431 cells were incubated for 24 hours in the presence of 10% FCS serum. In the second step the cells were incubated for 72 hours with the compounds to be tested at a final concentration of 100 ng/ml. The effect of the compounds on the cell proliferation was finally assessed in a standard MTT cell viability assay.

[2] = target: EGFR (Homo sapiens, UniProt P00533); assay: In vitro inhibition of EGFR, Flash Plate or glass-fiber filter technology (C2); format: biochemical; set-up: 0.5 μg EGFR-kinase domain/well; settings: EGFR-kinase domain, 5.0 μM unlabeled ATP, read-out: Kinase activity.(C2): pIC50 (converted)
Procedure, shortened: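 Two radiometric formats were used, each with 5.0 μM unlabeled ATP, [33P]ATP, 0.5 μg EGFR kinase domain and compounds from 1·10^−10 to 1·10^−6 M. Glass-fiber filter: 25° C for 10 min, pH 7.5, Mn2+/Mg2+, acid-stopped, phosphorimager read. Streptavidin Flash Plate: biotinylated poly(GT), pH 8.0, 30° C for 60 min.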

[3] = test system: SKOV3 cells; assay: Serum starved proliferation assay on the ovarian carcinoma SKOV3 cells (C3); format: cell-based; settings: Homo sapiens, SK-OV-3, 72 h, EGF stimulated (100 ng/ml, 72 hours, serum free) or 72 hours with compounds; MTT cell viability assay; read-out: SKOV3 cell (C3): pIC50 (converted)
Procedure, shortened: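 MTT viability read-out in SKOV3 cells after a 24 h pre-incubation in 10% FCS, in one of two formats. EGF-stimulated version: serum-free compound exposure followed by 100 ng/ml EGF (final) for 72 h at 37 °C, 5% CO2. Otherwise, compound alone for 72 h.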

Chain of EGFR (P00533 712-979 limits assumed): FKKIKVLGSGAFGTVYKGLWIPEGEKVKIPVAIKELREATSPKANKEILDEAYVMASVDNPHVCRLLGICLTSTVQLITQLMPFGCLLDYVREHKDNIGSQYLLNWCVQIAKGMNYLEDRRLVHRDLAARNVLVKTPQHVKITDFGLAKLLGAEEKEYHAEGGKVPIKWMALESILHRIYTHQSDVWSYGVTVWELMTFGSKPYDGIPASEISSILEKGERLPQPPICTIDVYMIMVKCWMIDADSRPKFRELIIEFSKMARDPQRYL

Compound	IC50 [1] [nM]	IC50 [2] [nM]	IC50 [3] [nM]	melting point [°C]
COc1cc2ncnc3c2cc1OCCOCCOCCc1ccc(Cl)cc1N3 [Compound 39, 4,6-ethanediylidene-14H-pyrimido[4,5-b][6,9,12,1]benzotrioxaazacyclohexadecine, 18-chloro-8,9,11,12,15,20-hexahydro-21-methoxy-]	1580	20	200	
COCCOc1cc2ncnc3c2cc1OCCCCCCOc1ccc(Br)cc1N3 [Compound 28, 4,6-ethanediylidene-19H-pyrimido[4,5-b][6,13,1]benzodioxaazacyclopentadecine, 17-bromo-8,9,10,11,12,13-hexahydro-20-(2-methoxyethoxy)-]	1580	25.1	1450	
COc1cc2ncnc3c2cc1OCCCCCCOc1ccc(-c2cccc(C#N)c2)cc1N3 [Compound 35, benzonitrile, 3-(8,9,10,11,12,13-hexahydro-20-methoxy-4,6-ethanediylidene-19H-pyrimido[4,5-b][6,13,1]benzodioxaazacyclopentadecin-17-yl)-]	> 3160	3980	> 10000	
COc1cc2ncnc3c2cc1OCCNC(=O)CNCc1cc(F)c(Cl)cc1N3 [Compound 81, 4,6-ethanediylidenepyrimido[4,5-b][6,1,9,12]benzoxatriazacyclopentadecin-11(8H)-one, 17-chloro-16-fluoro-9,10,12,13,14,19-hexahydro-20-methoxy-]		251	251	304.2 to 304.4
COc1cc2ncnc3c2cc1OCCCCCN(C(=O)OC(C)(C)C)Cc1ccc(Br)cc1N3 [Compound 19, 4,6-ethanediylidenepyrimido[4,5-b][6,1,12]benzoxadiazacyclo-pentadecine-13(8H)-carboxylic acid, 17-bromo-9,10,11,12,14,19-hexahydro-20-methoxy-, 1,1-dimethylethyl ester]	> 3160	63.1	5010	
COc1cc2ncnc3c2cc1OCCCCNCCN(C)Cc1ccc(Cl)cc1N3 [Compound 115, 4,6-ethanediylidenepyrimido[4,5-b][6,1,11,14]benzoxatriazacycloheptadecine, 19-chloro-8,9,10,11,12,13,14,15,16,21-decahydro-22-methoxy-15-methyl-]		6.31	126	196.9 to 197.8
COc1cc2ncnc3c2cc1OCCNCCN(C)Cc1ccc(Cl)cc1N3 [Compound 116, 4,6-ethanediylidenepyrimido[4,5-b][6,1,9,12]benzoxatriazacyclopentadecine, 17-chloro-8,9,10,11,12,13,14,19-octahydro-20-methoxy-13-methyl-]		200	63.1	195.8 to 196.6
COc1cc2ncnc3c2cc1OCCNC(=O)C(C)(C)NC(=O)Cc1ccc(Cl)cc1N3 [Compound 65, 4,6-ethanediylidene-8H-pyrimido[4,5-b][6,1,9,12]benzoxatriazacyclohexadecine-11,14-dione, 18-chloro-9,10,12,13,15,20-hexahydro-21-methoxy-12,12-dimethyl-]		12.6	20	285
COc1cc2ncnc3c2cc1OCCNC(=O)CN(C)Cc1cc(F)c(Cl)cc1N3 [Compound 79, 4,6-ethanediylidenepyrimido[4,5-b][6,1,9,12]benzoxatriazacyclopentadecin-11(8H)-one, 17-chloro-16-fluoro-9,10,12,13,14,19-hexahydro-20-methoxy-13-methyl-]		631	10000	306.3 to 307.4
COc1cc2ncnc3c2cc1OCCNC(=O)C(C(C)C)NC(=O)Cc1ccc(Cl)cc1N3 (stereo not drawn) [Compound 66, 4,6-ethanediylidene-8H-pyrimido[4,5-b][6,1,9,12]benzoxatriazacyclohexadecine-11,14-dione, 18-chloro-9,10,12,13,15,20-hexahydro-21-methoxy-12-(1-methylethyl)-]		79.4	10	335
COc1cc2ncnc3c2cc1OCCCCNC(=O)C1CCCN1Cc1ccc(Cl)cc1N3 (stereo not drawn) [Compound 100, 4,6-ethanediylidenepyrimido[4,5-b]pyrrolo[2,1-m][6,1,11,14]benzoxatriazacycloheptadecin-13(8H)-one, 21-chloro-9,10,11,12,13a, 14,15,16,18,23-decahydro-24-methoxy-]		7.94	126	226.3 to 227.7
COc1cc2ncnc3c2cc1OCCCNC(=O)CNCc1cc(F)c(Cl)cc1N3 [Compound 82, 4,6-ethanediylidene-12H-pyrimido[4,5-b][6,1,10,13]benzoxatriazacyclohexadecin-12-one, 18-chloro-17-fluoro-8,9,10,11,13,14,15,20-octahydro-21-methoxy-]		20	79.4	311 to 311.9

More lines, now with the values ahead:

IC50 [1] [nM]	IC50 [2] [nM]	IC50 [3] [nM]	melting point [°C]	Compound
501	10	60.3		COc1cc2ncnc3c2cc1OCCCCOCCc1ccc(Cl)cc1N3 [Compound 23, 4,6-ethanediylidene-13H-pyrimido[4,5-b][6,11,1]benzodioxaazacyclo-pentadecine, 17-chloro-8,9,10,11,14,19-hexahydro-20-methoxy-]
2000	2.51	120		COc1cc2ncnc3c2cc1OCCCNC(=O)CCc1ccc(Cl)cc1N3 [Compound 26, 4,6-ethenopyrimido[4,5-b][6,1,10]benzoxadiazacyclopentadecin-12(13H)-one, 17-chloro-8,9,10,11,14,19-hexahydro-20-methoxy-]
1260	20	126		COc1cc2ncnc3c2cc1OCCCCCOCCc1ccc(Cl)cc1N3 [Compound 38, 4,6-ethanediylidene-8H,14H-pyrimido[4,5-b][6,12,1]benzodioxaazacyclohexadecine, 18-chloro-9,10,11,12,15,20-hexahydro-21-methoxy-]
631	31.6	50.1		COc1cc2ncnc3c2cc1OCCCC(=O)NCCCc1ccc(Cl)cc1N3 [Compound 40, 4,6-ethanediylidene-8H-pyrimido[4,5-b][6,1,11]benzoxadiazacyclohexadecin-11(12H)-one, 18-chloro-9,10,13,14,15,20-hexahydro-21-methoxy-]
> 3160	15.8	166		COc1cc2ncnc3c2cc1OCCCCCCNC(=O)c1ccc(Cl)cc1N3 [Compound 36, 4,6-ethanediylidene-8H-pyrimido[4,5-b][6,1,13]benzoxadiazacyclohexadecin-15(20H)-one, 18-chloro-9,10,11,12,13,14-hexahydro-21-methoxy-]
	63.1	6310	254.4 to 256.5	COc1cc2ncnc3c2cc1OCCNC(=O)CCNCc1ccc(Cl)cc1N3 [Compound 75, 4,6-ethanediylidene-8H-pyrimido[4,5-b][6,1,9,13]benzoxatriazacyclohexadecin-11(12H)-one, 18-chloro-9,10,13,14,15,20-hexahydro-21-methoxy-]
	158	10000	288.5 to 290.5	COc1cc2ncnc3c2cc1OCCNC(=O)CN(C)Cc1ccc(Cl)cc1N3 [Compound 72, 4,6-ethanediylidenepyrimido[4,5-b][6,1,9,12]benzoxatriazacyclopentadecin-11(8H)-one, 17-chloro-9,10,12,13,14,19-hexahydro-20-methoxy-13-methyl-]
	39.8	3980	294.2 to 295.2	COc1cc2ncnc3c2cc1OCCNC(=O)CNCc1ccc(Cl)cc1N3 [Compound 73, 4,6-ethanediylidenepyrimido[4,5-b][6,1,9,12]benzoxatriazacyclopentadecin-11(8H)-one, 17-chloro-9,10,12,13,14,19-hexahydro-20-methoxy-]
	10	39.8	202.8 to 203.6	COc1cc2ncnc3c2cc1OCCCNCCN(C)Cc1ccc(Cl)cc1N3 [Compound 114, 4,6-ethanediylidene-8H-pyrimido[4,5-b][6,1,10,13]benzoxatriazacyclohexadecine, 18-chloro-9,10,11,12,13,14,15,20-octahydro-21-methoxy-14-methyl-]
	25.1	200	350.5 to 352.5	COc1cc2ncnc3c2cc1OCCCNC(=O)C1CCC(=O)N1Cc1ccc(Cl)cc1N3 (stereo not drawn) [Compound 76, 4,6-etheno-8H-pyrimido[4,5-b]pyrrolo[2,1-l][6,1,10,13]benzoxatriazacyclohexadecine-12,15(14H)-dione, 20-chloro-9,10,11,12a,13,17,22-heptahydro-23-methoxy-]
	50.1	63.1	292	COc1cc2ncnc3c2cc1OCCNC(=O)CNC(=O)Cc1ccc(Cl)cc1N3 [Compound 69, 4,6-ethanediylidene-8H-pyrimido[4,5-b][6,1,9,12]benzoxatriazacyclohexadecine-11,14-dione, 18-chloro-9,10,12,13,15,20-hexahydro-21-methoxy-]
